Test results reported in ChEMBL document CHEMBL1909046, “DrugMatrix in vitro pharmacology data”.

Key:
[1] = target: T1, Cholecystokinin receptor type A (Homo sapiens, UniProt P32238); assay type: cell membranes, Membrane; settings: 1321-n1; also: in other assays of this panel Not Active means under 50% inhibition at 10 µM
T1 sequence (P32238 whole entry): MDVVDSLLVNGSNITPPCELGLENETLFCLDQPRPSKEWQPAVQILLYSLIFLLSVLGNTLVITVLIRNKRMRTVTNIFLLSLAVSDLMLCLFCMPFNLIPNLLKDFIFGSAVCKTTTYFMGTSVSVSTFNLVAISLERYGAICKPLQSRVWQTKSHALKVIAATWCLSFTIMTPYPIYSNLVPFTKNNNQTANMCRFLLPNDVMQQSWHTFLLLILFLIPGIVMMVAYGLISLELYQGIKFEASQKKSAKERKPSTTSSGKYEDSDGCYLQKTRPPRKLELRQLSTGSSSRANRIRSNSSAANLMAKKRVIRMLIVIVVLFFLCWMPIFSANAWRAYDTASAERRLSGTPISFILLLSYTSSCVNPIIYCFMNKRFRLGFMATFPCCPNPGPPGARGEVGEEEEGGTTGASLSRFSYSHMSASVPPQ

[2] = target: T2, Type-2 angiotensin II receptor (Homo sapiens, UniProt P50052); assay type: cell-based; settings: cho-k1; also: in other assays of this panel Not Active means under 50% inhibition at 10 µM
T2 sequence (P50052 whole entry): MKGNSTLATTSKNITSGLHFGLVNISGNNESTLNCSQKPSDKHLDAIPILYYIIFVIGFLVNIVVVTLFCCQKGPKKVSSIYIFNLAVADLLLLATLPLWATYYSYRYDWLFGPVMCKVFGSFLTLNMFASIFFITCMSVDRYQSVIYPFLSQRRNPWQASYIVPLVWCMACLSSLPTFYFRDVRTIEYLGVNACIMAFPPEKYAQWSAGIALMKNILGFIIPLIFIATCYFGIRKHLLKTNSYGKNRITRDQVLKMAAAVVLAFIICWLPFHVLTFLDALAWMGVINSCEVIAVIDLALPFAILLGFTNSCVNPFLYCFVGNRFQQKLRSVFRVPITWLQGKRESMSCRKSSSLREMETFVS

B2 bradykinin receptor = target: T3, B2 bradykinin receptor (Homo sapiens, UniProt P30411); assay type: cell membranes, Membrane; settings: chem-1; also: in other assays of this panel Not Active means under 50% inhibition at 10 µM
T3 sequence (P30411 whole entry): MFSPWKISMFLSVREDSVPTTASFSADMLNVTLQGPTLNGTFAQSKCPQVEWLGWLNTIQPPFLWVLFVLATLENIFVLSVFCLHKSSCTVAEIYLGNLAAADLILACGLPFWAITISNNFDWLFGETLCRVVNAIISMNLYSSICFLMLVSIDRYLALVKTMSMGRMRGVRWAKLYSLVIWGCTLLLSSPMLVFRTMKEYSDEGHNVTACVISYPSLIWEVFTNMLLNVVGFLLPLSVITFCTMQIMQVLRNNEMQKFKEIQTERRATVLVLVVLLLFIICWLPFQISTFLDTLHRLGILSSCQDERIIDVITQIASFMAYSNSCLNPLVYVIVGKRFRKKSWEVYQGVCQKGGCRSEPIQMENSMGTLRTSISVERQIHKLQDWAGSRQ

[3] = DRUGMATRIX: Glutamate, AMPA radioligand binding (ligand: [3H] AMPA); assay type: cell membranes, Rattus norvegicus, Wistar, Cerebral cortex, Membrane; settings: Not Active = under 50% inhibition at 10 µM
Endothelin-1 receptor = target: T4, Endothelin-1 receptor (Homo sapiens, UniProt P25101); assay type: cell membranes, Membrane; settings: cho-k1; also: in other assays of this panel Not Active means under 50% inhibition at 10 µM
T4 sequence (P25101 whole entry): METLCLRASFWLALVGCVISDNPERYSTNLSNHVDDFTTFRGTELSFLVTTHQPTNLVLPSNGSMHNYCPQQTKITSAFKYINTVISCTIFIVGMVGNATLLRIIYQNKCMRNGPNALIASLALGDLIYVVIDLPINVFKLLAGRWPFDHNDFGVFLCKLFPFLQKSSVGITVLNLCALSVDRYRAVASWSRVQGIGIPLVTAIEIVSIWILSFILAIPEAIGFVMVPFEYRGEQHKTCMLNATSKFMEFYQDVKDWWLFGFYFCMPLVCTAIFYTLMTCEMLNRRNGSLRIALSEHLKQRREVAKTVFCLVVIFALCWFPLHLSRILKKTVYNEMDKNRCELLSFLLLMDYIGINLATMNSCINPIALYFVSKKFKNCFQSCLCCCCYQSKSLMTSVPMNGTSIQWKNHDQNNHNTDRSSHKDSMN

[4] = DRUGMATRIX: Leukotriene, BLT (LTB4) radioligand binding (ligand: [3H]LTB4); assay type: cell membranes, Membrane; settings: u-937; Not Active = under 50% inhibition at 10 µM
Melanocortin receptor 5 = Melanocortin receptor 5 (Homo sapiens, UniProt P33032); assay type: cell membranes, Membrane; settings: hek293; also: in other assays of this panel Not Active means under 50% inhibition at 10 µM
Melanocortin receptor 5, sequence (P33032 whole entry): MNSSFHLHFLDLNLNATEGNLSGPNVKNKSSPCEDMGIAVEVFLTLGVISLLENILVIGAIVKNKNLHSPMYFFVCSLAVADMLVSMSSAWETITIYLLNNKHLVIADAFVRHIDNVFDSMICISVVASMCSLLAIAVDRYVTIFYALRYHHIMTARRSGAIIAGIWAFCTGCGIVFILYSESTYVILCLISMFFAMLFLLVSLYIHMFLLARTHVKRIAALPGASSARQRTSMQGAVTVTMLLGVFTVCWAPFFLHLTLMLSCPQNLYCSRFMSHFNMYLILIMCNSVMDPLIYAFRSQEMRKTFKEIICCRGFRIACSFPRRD

Substance-K receptor = target: T5, Substance-K receptor (Homo sapiens, UniProt P21452); assay type: cell membranes, CHO, Membrane; settings: cho; also: in other assays of this panel Not Active means under 50% inhibition at 10 µM
T5 sequence (P21452 whole entry): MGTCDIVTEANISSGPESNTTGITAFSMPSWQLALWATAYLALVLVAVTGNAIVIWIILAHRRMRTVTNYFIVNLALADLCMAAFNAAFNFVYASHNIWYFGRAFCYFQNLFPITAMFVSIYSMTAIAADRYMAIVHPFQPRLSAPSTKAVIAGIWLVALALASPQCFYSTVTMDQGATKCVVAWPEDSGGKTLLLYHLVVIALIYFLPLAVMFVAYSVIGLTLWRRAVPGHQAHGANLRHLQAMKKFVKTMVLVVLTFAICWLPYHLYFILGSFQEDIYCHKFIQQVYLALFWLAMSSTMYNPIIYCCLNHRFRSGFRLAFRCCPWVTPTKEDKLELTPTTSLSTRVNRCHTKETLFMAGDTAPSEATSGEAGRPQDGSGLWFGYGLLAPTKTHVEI

CCN[C@@H]1C[C@H](N)[C@@H](O[C@H]2OC(CN)=CC[C@H]2N)[C@H](O)[C@H]1O[C@H]1OC[C@](C)(O)[C@H](NC)[C@H]1O [NETILMICIN]
Not Active: IC50 [1] | IC50 [2] | IC50 (B2 bradykinin receptor) | IC50 [3] | Ki [3] | IC50 (Endothelin-1 receptor) | IC50 [4] | Ki [4] | IC50 (Melanocortin receptor 5) | IC50 (Substance-K receptor)

CCOC(=O)C(C)(C)Oc1ccc(Cl)cc1 [CLOFIBRATE]
Not Active: IC50 [1] | IC50 [2] | IC50 (B2 bradykinin receptor) | IC50 [3] | Ki [3] | IC50 (Endothelin-1 receptor) | IC50 [4] | Ki [4] | IC50 (Melanocortin receptor 5) | IC50 (Substance-K receptor)

C#C[C@]1(OC(C)=O)CC[C@H]2[C@@H]3CCC4=CC(=O)CC[C@@H]4[C@H]3CC[C@@]21C [NORETHINDRONE ACETATE]
Not Active: IC50 [1] | IC50 [2] | IC50 (B2 bradykinin receptor) | IC50 [3] | Ki [3] | IC50 (Endothelin-1 receptor) | IC50 [4] | Ki [4] | IC50 (Melanocortin receptor 5) | IC50 (Substance-K receptor)

COC(=O)C1=C(C)NC(C)=C(C(=O)OCC(C)C)C1c1ccccc1[N+](=O)[O-] (stereo not given) [NISOLDIPINE]
Not Active: IC50 [1] | IC50 [2] | IC50 (B2 bradykinin receptor) | IC50 [3] | Ki [3] | IC50 (Endothelin-1 receptor) | IC50 [4] | Ki [4] | IC50 (Melanocortin receptor 5) | IC50 (Substance-K receptor)

CC(=O)Nc1c(I)c(NC(C)=O)c(I)c(C(=O)O)c1I [DIATRIZOIC ACID]
Not Active: IC50 [1] | IC50 [2] | IC50 (B2 bradykinin receptor) | IC50 [3] | Ki [3] | IC50 (Endothelin-1 receptor) | IC50 [4] | Ki [4] | IC50 (Melanocortin receptor 5) | IC50 (Substance-K receptor)

C[C@@H]1C[C@@H]([C@H](O)CC2CC(=O)NC(=O)C2)C(=O)[C@@H](C)C1 [CYCLOHEXIMIDE]
Not Active: IC50 [1] | IC50 [2] | IC50 (B2 bradykinin receptor) | IC50 [3] | Ki [3] | IC50 (Endothelin-1 receptor) | IC50 [4] | Ki [4] | IC50 (Melanocortin receptor 5) | IC50 (Substance-K receptor)

Cc1cc(=O)n(-c2ccccc2)n1C [ANTIPYRINE]
Not Active: IC50 [1] | IC50 [2] | IC50 (B2 bradykinin receptor) | IC50 [3] | Ki [3] | IC50 (Endothelin-1 receptor) | IC50 [4] | Ki [4] | IC50 (Melanocortin receptor 5) | IC50 (Substance-K receptor)

CC1(C)O[C@@H]2C[C@H]3[C@@H]4C[C@H](F)C5=CC(=O)CC[C@]5(C)[C@H]4[C@@H](O)C[C@]3(C)[C@]2(C(=O)CO)O1 [FLURANDRENOLIDE]
Not Active: IC50 [1] | IC50 [2] | IC50 (B2 bradykinin receptor) | IC50 [3] | Ki [3] | IC50 (Endothelin-1 receptor) | IC50 [4] | Ki [4] | IC50 (Melanocortin receptor 5) | IC50 (Substance-K receptor)

CC(=O)OCC(=O)[C@@]1(O)CC[C@H]2[C@@H]3CCC4=CC(=O)CC[C@]4(C)[C@H]3C(=O)C[C@@]21C [CORTISONE ACETATE]
Not Active: IC50 [1] | IC50 [2] | IC50 (B2 bradykinin receptor) | IC50 [3] | Ki [3] | IC50 (Endothelin-1 receptor) | IC50 [4] | Ki [4] | IC50 (Melanocortin receptor 5) | IC50 (Substance-K receptor)

CCN1CC(CCN2CCOCC2)C(c2ccccc2)(c2ccccc2)C1=O (stereo not given) [DOXAPRAM]
Not Active: IC50 [1] | IC50 [2] | IC50 (B2 bradykinin receptor) | IC50 [3] | Ki [3] | IC50 (Endothelin-1 receptor) | IC50 [4] | Ki [4] | IC50 (Melanocortin receptor 5) | IC50 (Substance-K receptor)

NC(=O)c1cnccn1 [PYRAZINAMIDE]
Not Active: IC50 [1] | IC50 [2] | IC50 (B2 bradykinin receptor) | IC50 [3] | Ki [3] | IC50 (Endothelin-1 receptor) | IC50 [4] | Ki [4] | IC50 (Melanocortin receptor 5) | IC50 (Substance-K receptor)

O=C1CC[C@H](N2C(=O)c3ccccc3C2=O)C(=O)N1
Not Active: IC50 [1] | IC50 [2] | IC50 (B2 bradykinin receptor) | IC50 [3] | Ki [3] | IC50 (Endothelin-1 receptor) | IC50 [4] | Ki [4] | IC50 (Melanocortin receptor 5) | IC50 (Substance-K receptor)

ClC(Cl)Cl [CHLOROFORM]
Not Active: IC50 [1] | IC50 [2] | IC50 (B2 bradykinin receptor) | IC50 [3] | Ki [3] | IC50 (Endothelin-1 receptor) | IC50 [4] | Ki [4] | IC50 (Melanocortin receptor 5) | IC50 (Substance-K receptor)

CCc1c2c(nc3ccc(OC(=O)N4CCC(N5CCCCC5)CC4)cc13)-c1cc3c(c(=O)n1C2)COC(=O)[C@]3(O)CC [IRINOTECAN]
Not Active: IC50 [1] | IC50 [2] | IC50 (B2 bradykinin receptor) | IC50 [3] | Ki [3] | IC50 (Endothelin-1 receptor) | IC50 [4] | Ki [4] | IC50 (Melanocortin receptor 5) | IC50 (Substance-K receptor)

CCCN(CCC)C(=O)C(CCC(=O)O)NC(=O)c1ccccc1 (stereo not given) [PROGLUMIDE]
Not Active: IC50 [1] | IC50 [2] | IC50 (B2 bradykinin receptor) | IC50 [3] | Ki [3] | IC50 (Endothelin-1 receptor) | IC50 [4] | Ki [4] | IC50 (Melanocortin receptor 5) | IC50 (Substance-K receptor)

CCCC(CCC)C(=O)O [VALPROIC ACID]
Not Active: IC50 [1] | IC50 [2] | IC50 (B2 bradykinin receptor) | IC50 [3] | Ki [3] | IC50 (Endothelin-1 receptor) | IC50 [4] | Ki [4] | IC50 (Melanocortin receptor 5) | IC50 (Substance-K receptor)

Cc1ccccc1C(=O)N1CCC(Cc2ccccc2)CC1
Not Active: IC50 [1] | IC50 [2] | IC50 (B2 bradykinin receptor) | IC50 [3] | Ki [3] | IC50 (Endothelin-1 receptor) | IC50 [4] | Ki [4] | IC50 (Melanocortin receptor 5) | IC50 (Substance-K receptor)

CCCC(=O)Nc1ccc(OCC(O)CNC(C)C)c(C(C)=O)c1 (stereo not given) [ACEBUTOLOL]
Not Active: IC50 [1] | IC50 [2] | IC50 (B2 bradykinin receptor) | IC50 [3] | Ki [3] | IC50 (Endothelin-1 receptor) | IC50 [4] | Ki [4] | IC50 (Melanocortin receptor 5) | IC50 (Substance-K receptor)

OC(CCN1CCCCC1)(c1ccccc1)C1CCCCC1 (stereo not given) [TRIHEXYPHENIDYL]
Not Active: IC50 [1] | IC50 [2] | IC50 (B2 bradykinin receptor) | IC50 [3] | Ki [3] | IC50 (Endothelin-1 receptor) | IC50 [4] | Ki [4] | IC50 (Melanocortin receptor 5) | IC50 (Substance-K receptor)
